{"source": "patent US20240343704A1", "about": "“HALO-SUBSTITUTED AMINO PYRIDINE COMPOUNDS AS INHIBITORS OF THE HAEMATOPOIETIC PROGENITOR KINASE 1 (HPK1)” (priority 2021, published 2024)", "data": [{"target": "T1, Recombinant (1-346) HPK1 (h) (Homo sapiens, UniProt Q92918)", "T1 construct": "Recombinant (1-346) HPK1 (h) is incubated with 8 mM MOPS pH 7.0", "T1 sequence (Q92918 1-346)": "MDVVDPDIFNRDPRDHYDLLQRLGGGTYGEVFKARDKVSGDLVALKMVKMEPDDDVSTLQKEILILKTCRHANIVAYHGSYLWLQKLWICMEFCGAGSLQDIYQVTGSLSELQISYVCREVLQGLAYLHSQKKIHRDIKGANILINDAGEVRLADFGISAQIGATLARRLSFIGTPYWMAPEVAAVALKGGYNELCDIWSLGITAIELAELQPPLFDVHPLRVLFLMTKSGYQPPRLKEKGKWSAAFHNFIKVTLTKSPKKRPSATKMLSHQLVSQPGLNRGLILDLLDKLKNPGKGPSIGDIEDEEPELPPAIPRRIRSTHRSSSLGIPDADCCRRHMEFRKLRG", "experiment": "HPK1 Human STE Kinase Enzymatic Radiometric Assay", "type": "biochemical", "conditions": "read-out: HPK1 IC50 nM Range*", "description": "A stock solution of 10 mM of test compound is prepared in DMSO. The compound plate was prepared by 3-fold and 9-point serial dilutions. […] The reaction is initiated by The addition of the Mg/ATP mix. After incubation for 40 minutes at RT, the reaction is stopped by the addition of phosphoric acid to a concentration of 0.5%.", "units": {"IC50": "nM"}, "values": [{"smiles": "CN(C)Cc1cc(-c2cc(-c3cc4c(cc3F)C(=O)NCC4)c(N)nc2F)ccc1N1CCN(C2CCC2)CC1", "note": "[I-462, 6-(2-amino-5-(4-(4-cyclobutylpiperazin-1-yl)-3-((dimethylamino)methyl)phenyl)-6-fluoropyridin-3-yl)-7-fluoro-3,4-dihydroisoquinolin-1(2H)-one]", "IC50": "0.1 to 10"}, {"smiles": "CN1CCc2c(cccc2-c2cc(-c3ccc4c(c3)CCNC4=O)c(N)nc2F)C1", "note": "[I-463, 6-(2-amino-6-fluoro-5-(2-methyl-1,2,3,4-tetrahydroisoquinolin-5-yl)pyridin-3-yl)-3,4-dihydroisoquinolin-1(2H)-one]", "IC50": "> 1000"}, {"smiles": "CN1CCc2c(cccc2-c2cc(-c3cc4c(cc3F)C(=O)NCC4)c(N)nc2F)C1", "note": "[I-464, 6-(2-amino-6-fluoro-5-(2-methyl-1,2,3,4-tetrahydroisoquinolin-5-yl)pyridin-3-yl)-7-fluoro-3,4-dihydroisoquinolin-1(2H)-one]", "IC50": "> 1000"}, {"smiles": "Cc1nc2cc(-c3cc(-c4ccc(N5CCN(C(C)C)CC5)cc4)c(F)nc3N)ccc2c(=O)n1N", "note": "[I-465, 3-amino-7-(2-amino-6-fluoro-5-(4-(4-isopropylpiperazin-1-yl)phenyl)pyridin-3-yl)-2-methylquinazolin-4(3H)-one]", "IC50": "101 to 1000"}, {"smiles": "CC(C)N1CCN(c2ccc(-c3cc(-c4ccc5c(=O)[nH]cc(Cl)c5c4)c(N)nc3F)cc2)CC1", "note": "[I-466, 6-(2-amino-6-fluoro-5-(4-(4-isopropylpiperazin-1-yl)phenyl)pyridin-3-yl)-4-chloroisoquinolin-1(2H)-one]", "IC50": "11 to 100"}, {"smiles": "Cc1nc2cc(-c3cc(-c4ccc(N5CCN(CCCC(F)F)CC5)cc4)c(F)nc3N)cc(F)c2c(=O)[nH]1", "note": "[I-467, 7-(2-amino-5-(4-(4-(4,4-difluorobutyl)piperazin-1-yl)phenyl)-6-fluoropyridin-3-yl)-5-fluoro-2-methylquinazolin-4(3H)-one]", "IC50": "0.1 to 10"}, {"smiles": "Cc1nc2cc(-c3cc(-c4ccc([C@]56C[C@H]5CN(C)C6)cc4)c(F)nc3N)ccc2c(=O)[nH]1", "note": "[I-468, 7-(2-amino-6-fluoro-5-(4-((1S,5R)-3-methyl-3-azabicyclo[3.1.0]hexan-1-yl)phenyl)pyridin-3-yl)-2-methylquinazolin-4(3H)-one]", "IC50": "11 to 100"}, {"smiles": "Cc1nc2cc(-c3cc(-c4ccc([C@]56C[C@H]5CN(C)C6)cc4)c(F)nc3N)cc(F)c2c(=O)[nH]1", "note": "[I-469, 7-(2-amino-6-fluoro-5-(4-((1S,5R)-3-methyl-3-azabicyclo[3.1.0]hexan-1-yl)phenyl)pyridin-3-yl)-5-fluoro-2-methylquinazolin-4(3H)-one]", "IC50": "11 to 100"}, {"smiles": "CN1C[C@@H]2C[C@]2(c2ccc(-c3cc(-c4ccc5c(=O)[nH]cc(F)c5c4)c(N)nc3F)cc2)C1", "note": "[I-470, 6-(2-amino-6-fluoro-5-(4-((1S,5R)-3-methyl-3-azabicyclo[3.1.0]hexan-1-yl)phenyl)pyridin-3-yl)-4-fluoroisoquinolin-1(2H)-one]", "IC50": "0.1 to 10"}, {"smiles": "Cc1c[nH]c(=O)c2ccc(-c3cc(-c4ccc([C@]56C[C@H]5CN(C)C6)cc4)c(F)nc3N)cc12", "note": "[I-471, 6-(2-amino-6-fluoro-5-(4-((1S,5R)-3-methyl-3-azabicyclo[3.1.0]hexan-1-yl)phenyl)pyridin-3-yl)-4-methylisoquinolin-1(2H)-one]", "IC50": "0.1 to 10"}, {"smiles": "Cc1nc2cc(-c3cc(-c4ccc(N5CCN(C6CCC6)CC5)cc4)c(F)nc3N)ccc2c(=O)[nH]1", "note": "[I-472, 7-(2-amino-5-(4-(4-cyclobutylpiperazin-1-yl)phenyl)-6-fluoropyridin-3-yl)-2-methylquinazolin-4(3H)-one]", "IC50": "0.1 to 10"}, {"smiles": "Cc1nc2cc(-c3cc(-c4ccc(N5CCN(C6CCC6)CC5)cc4)c(F)nc3N)cc(F)c2c(=O)[nH]1", "note": "[I-473, 7-(2-amino-5-(4-(4-cyclobutylpiperazin-1-yl)phenyl)-6-fluoropyridin-3-yl)-5-fluoro-2-methylquinazolin-4(3H)-one]", "IC50": "0.1 to 10"}, {"smiles": "Cc1nc2cc(-c3cc(-c4ccc(N5CCOCC5)c(CN(C)C)c4)c(F)nc3N)ccc2c(=O)[nH]1", "note": "[I-474, 7-(2-amino-5-(3-((dimethylamino)methyl)-4-morpholinophenyl)-6-fluoropyridin-3-yl)-2-methylquinazolin-4(3H)-one]", "IC50": "11 to 100"}, {"smiles": "Cc1nc2cc(-c3cc(-c4ccc(N5CCOCC5)c(CN(C)C)c4)c(F)nc3N)cc(F)c2c(=O)[nH]1", "note": "[I-475, 7-(2-amino-5-(3-((dimethylamino)methyl)-4-morpholinophenyl)-6-fluoropyridin-3-yl)-5-fluoro-2-methylquinazolin-4(3H)-one]", "IC50": "11 to 100"}, {"smiles": "Nc1nc(F)c(-c2ccc(N3CCN(CCC(F)F)CC3)cc2)cc1-c1ccc2c(c1)CCNC2=O", "note": "[I-476, 6-(2-amino-5-(4-(4-(3,3-difluoropropyl)piperazin-1-yl)phenyl)-6-fluoropyridin-3-yl)-3,4-dihydroisoquinolin-1(2H)-one]", "IC50": "0.1 to 10"}, {"smiles": "Nc1nc(F)c(-c2ccc(N3CCN(CCC(F)F)CC3)cc2)cc1-c1cc2c(cc1F)C(=O)NCC2", "note": "[I-477, 6-(2-amino-5-(4-(4-(3,3-difluoropropyl)piperazin-1-yl)phenyl)-6-fluoropyridin-3-yl)-7-fluoro-3,4-dihydroisoquinolin-1(2H)-one]", "IC50": "0.1 to 10"}, {"smiles": "Nc1nc(F)c(-c2ccc(C3=CCOCC3)cc2C2CNC(=O)C2)cc1-c1cc2c(cc1F)C(=O)NCC2", "note": "(centres unmarked) [I-478, 6-(2-amino-5-(4-(3,6-dihydro-2H-pyran-4-yl)-2-(5-oxopyrrolidin-3-yl)phenyl)-6-fluoropyridin-3-yl)-7-fluoro-3,4-dihydroisoquinolin-1(2H)-one]", "IC50": "> 1000"}, {"smiles": "Nc1nc(F)c(-c2ccc(C3CCOCC3)cc2C2CNC(=O)C2)cc1-c1cc2c(cc1F)C(=O)NCC2", "note": "(centres unmarked) [I-479, 6-(2-amino-6-fluoro-5-(2-(5-oxopyrrolidin-3-yl)-4-(tetrahydro-2H-pyran-4-yl)phenyl)pyridin-3-yl)-7-fluoro-3,4-dihydroisoquinolin-1(2H)-one]", "IC50": "> 1000"}, {"smiles": "CN(C)Cc1cc(-c2cc(-c3ccc4c(=O)[nH]cc(F)c4c3)c(N)nc2F)ccc1N1CCOCC1", "note": "[I-480, 6-(2-amino-5-(3-((dimethylamino)methyl)-4-morpholinophenyl)-6-fluoropyridin-3-yl)-4-fluoroisoquinolin-1(2H)-one]", "IC50": "11 to 100"}, {"smiles": "CC(C)N1CCN(c2ccc(-c3cc(-c4cc(F)c5c(=O)[nH]cc(F)c5c4)c(N)nc3F)cc2)CC1", "note": "[I-482, 6-(2-amino-6-fluoro-5-(4-(4-isopropylpiperazin-1-yl)phenyl)pyridin-3-yl)-4,8-difluoroisoquinolin-1(2H)-one]", "IC50": "0.1 to 10"}, {"smiles": "Nc1nc(F)c(-c2ccc(N3CCN(CC4CC4)CC3)cc2)cc1-c1cc(F)c2c(=O)[nH]cc(F)c2c1", "note": "[I-483, 6-(2-amino-5-(4-(4-(cyclopropylmethyl)piperazin-1-yl)phenyl)-6-fluoropyridin-3-yl)-4,8-difluoroisoquinolin-1(2H)-one]", "IC50": "0.1 to 10"}, {"smiles": "Cc1nc2cc(-c3cc(-c4ccc(N5CCN(CCCC(F)F)CC5)cc4)c(F)nc3N)ccc2c(=O)[nH]1", "note": "[I-484, 7-(2-amino-5-(4-(4-(4,4-difluorobutyl)piperazin-1-yl)phenyl)-6-fluoropyridin-3-yl)-2-methylquinazolin-4(3H)-one]", "IC50": "0.1 to 10"}, {"smiles": "Cc1nc2cc(-c3cc(-c4ccc(N5CCN(CCC(F)F)CC5)cc4)c(F)nc3N)cc(F)c2c(=O)[nH]1", "note": "[I-485, 7-(2-amino-5-(4-(4-(3,3-difluoropropyl)piperazin-1-yl)phenyl)-6-fluoropyridin-3-yl)-5-fluoro-2-methylquinazolin-4(3H)-one]", "IC50": "11 to 100"}, {"smiles": "CN(C)Cc1cc(-c2cc(-c3cc(F)c4c(c3)CCNC4=O)c(N)nc2F)ccc1N1CCOCC1", "note": "[I-486, 6-(2-amino-5-(3-((dimethylamino)methyl)-4-morpholinophenyl)-6-fluoropyridin-3-yl)-8-fluoro-3,4-dihydroisoquinolin-1(2H)-one]", "IC50": "0.1 to 10"}, {"smiles": "CN(C)Cc1cc(-c2cc(-c3ccc4c(c3)CCNC4=O)c(N)nc2F)ccc1N1CCSCC1", "note": "[I-487, 6-(2-amino-5-(3-((dimethylamino)methyl)-4-thiomorpholinophenyl)-6-fluoropyridin-3-yl)-3,4-dihydroisoquinolin-1(2H)-one]", "IC50": "0.1 to 10"}, {"smiles": "CN(C)Cc1cc(-c2cc(-c3cc4c(cc3F)C(=O)NCC4)c(N)nc2F)ccc1N1CCSCC1", "note": "[I-488, 6-(2-amino-5-(3-((dimethylamino)methyl)-4-thiomorpholinophenyl)-6-fluoropyridin-3-yl)-7-fluoro-3,4-dihydroisoquinolin-1(2H)-one]", "IC50": "0.1 to 10"}, {"smiles": "CC(C)N1CCN(c2ccc(-c3cc(-c4cc(F)c5c(=O)[nH]cc(Cl)c5c4)c(N)nc3F)cc2)CC1", "note": "[I-489, 6-(2-amino-6-fluoro-5-(4-(4-isopropylpiperazin-1-yl)phenyl)pyridin-3-yl)-4-chloro-8-fluoroisoquinolin-1(2H)-one]", "IC50": "0.1 to 10"}, {"smiles": "Cc1nc2cc(-c3cc(-c4ccc(C5CCOCC5)c(CN(C)C)c4)c(F)nc3N)cc(F)c2c(=O)[nH]1", "note": "[I-490, 7-(2-amino-5-(3-((dimethylamino)methyl)-4-(tetrahydro-2H-pyran-4-yl)phenyl)-6-fluoropyridin-3-yl)-5-fluoro-2-methylquinazolin-4(3H)-one]", "IC50": "11 to 100"}, {"smiles": "Nc1nc(F)c(-c2ccc(N3CCOCC3)c(CN3CCCC3)c2)cc1-c1ccc2c(c1)CCNC2=O", "note": "[I-491, 6-(2-amino-6-fluoro-5-(4-morpholino-3-(pyrrolidin-1-ylmethyl)phenyl)pyridin-3-yl)-3,4-dihydroisoquinolin-1(2H)-one]", "IC50": "11 to 100"}]}]}
